# Measurements as given in US20220402925A1, “COMPOUNDS AND METHODS FOR THE TREATMENT OF CYSTIC FIBROSIS” (Flatley Discovery Lab, LLC, priority 2019, published 2022).
# Biological target: T1, F508del CFTR (Homo sapiens, UniProt P13569, DEL508-508)
# T1 construct: Primary CF airway epithelial cells were obtained from the UNC Cystic Fibrosis Tissue Procurement and Cell Culture Core; host or cells: primary CF airway epithelial cells
# Assay: Equivalent current assay in primary CF airway epithelial cells (Corrector Activity, NAUC normalized to 3 μM VX809)
# Format: cell-based
# Details: NAUC as % of positive control (VX-809)
# Procedure, shortened: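 Readout is NAUC: current area from forskolin/potentiator addition until CFTR-172, minus vehicle, relative to 3 μM VX809 (=1.0). Cells were primary CF epithelia at air-liquid interface ≥4 weeks, given basolateral compound for 24 h at 37° C; median of n≥4 replicates, sigmoid fit with nH fixed at 1.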
# T1 sequence (P13569 with tags, fused parts or gaps DEL508-508): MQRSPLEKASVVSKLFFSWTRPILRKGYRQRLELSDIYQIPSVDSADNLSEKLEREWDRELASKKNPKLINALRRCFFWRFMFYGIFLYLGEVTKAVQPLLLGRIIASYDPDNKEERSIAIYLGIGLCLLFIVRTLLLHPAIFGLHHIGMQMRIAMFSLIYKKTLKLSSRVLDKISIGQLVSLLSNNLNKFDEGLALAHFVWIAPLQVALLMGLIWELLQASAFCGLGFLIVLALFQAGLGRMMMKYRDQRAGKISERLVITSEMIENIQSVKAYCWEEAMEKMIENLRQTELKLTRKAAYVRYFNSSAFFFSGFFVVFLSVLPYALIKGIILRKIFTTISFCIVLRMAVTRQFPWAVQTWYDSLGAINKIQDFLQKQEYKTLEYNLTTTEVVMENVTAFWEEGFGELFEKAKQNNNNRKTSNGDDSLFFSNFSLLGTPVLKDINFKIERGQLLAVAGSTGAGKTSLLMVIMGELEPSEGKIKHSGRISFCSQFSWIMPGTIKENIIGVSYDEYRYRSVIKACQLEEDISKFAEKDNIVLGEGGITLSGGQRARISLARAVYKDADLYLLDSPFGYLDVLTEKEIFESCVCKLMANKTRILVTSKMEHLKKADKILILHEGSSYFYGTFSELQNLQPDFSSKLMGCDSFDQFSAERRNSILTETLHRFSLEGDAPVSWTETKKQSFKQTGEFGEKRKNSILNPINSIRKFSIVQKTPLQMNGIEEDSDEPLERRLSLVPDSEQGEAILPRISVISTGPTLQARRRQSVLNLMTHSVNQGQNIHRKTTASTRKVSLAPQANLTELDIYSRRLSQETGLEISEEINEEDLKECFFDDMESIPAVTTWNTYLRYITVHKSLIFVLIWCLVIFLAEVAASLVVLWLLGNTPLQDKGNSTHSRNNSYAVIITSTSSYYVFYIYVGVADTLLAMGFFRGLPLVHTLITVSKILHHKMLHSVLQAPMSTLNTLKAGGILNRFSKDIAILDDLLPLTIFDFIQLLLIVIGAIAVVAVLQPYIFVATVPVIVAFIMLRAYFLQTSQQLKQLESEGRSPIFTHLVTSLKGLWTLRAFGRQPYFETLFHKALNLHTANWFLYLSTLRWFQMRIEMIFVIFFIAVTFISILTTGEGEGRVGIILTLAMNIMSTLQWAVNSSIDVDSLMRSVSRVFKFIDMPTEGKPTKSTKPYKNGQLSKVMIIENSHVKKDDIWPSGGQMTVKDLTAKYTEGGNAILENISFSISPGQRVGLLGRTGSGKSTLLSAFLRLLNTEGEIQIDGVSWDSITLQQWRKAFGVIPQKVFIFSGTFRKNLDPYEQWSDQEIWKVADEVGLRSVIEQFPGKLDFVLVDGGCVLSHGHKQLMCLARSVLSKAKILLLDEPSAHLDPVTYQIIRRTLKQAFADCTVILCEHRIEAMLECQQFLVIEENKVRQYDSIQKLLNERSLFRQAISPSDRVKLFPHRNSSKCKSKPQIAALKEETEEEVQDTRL
row,Corr Activity (NAUC),Structure (SMILES)
1,++ (NAUC 70-40% of positive control),O=C(Cn1nc(-c2cc(Cl)cc(C(F)(F)F)c2)c2[nH]cnc2c1=O)N(c1ccc2c(c1)OC(F)(F)O2)C1CC1 [Example 401]
2,++ (NAUC 70-40% of positive control),Cc1cc(-c2nn(CC(=O)N(c3ccc4c(c3)OC(F)(F)O4)C3CC3)c(=O)c3nc[nH]c23)cc(C(F)(F)F)c1 [Example 402]
3,++ (NAUC 70-40% of positive control),N#Cc1cc(-c2nn(CC(=O)N(c3ccc4c(c3)OC(F)(F)O4)C3CC3)c(=O)c3nc[nH]c23)cc(C(F)(F)F)c1 [Example 404]
4,+ (NAUC<40% of positive control),O=C(Cn1nc(-c2cc(Cl)cc(CO)c2)c2[nH]cnc2c1=O)N(c1ccc2c(c1)OC(F)(F)O2)C1CC1 [Example 405]
5,+ (NAUC<40% of positive control),O=C(Cn1nc(-c2cc(O)cc(OC(F)(F)F)c2)c2[nH]cnc2c1=O)N(c1ccc2c(c1)OC(F)(F)O2)C1CC1 [Example 407]
6,++ (NAUC 70-40% of positive control),N#Cc1cc(OC(F)(F)F)cc(-c2nn(CC(=O)N(c3ccc4c(c3)OC(F)(F)O4)C3CC3)c(=O)c3nc[nH]c23)c1 [Example 408]
7,++ (NAUC 70-40% of positive control),COc1cc(C#N)cc(-c2nn(CC(=O)N(c3ccc4c(c3)OC(F)(F)O4)C3CC3)c(=O)c3nc[nH]c23)c1 [Example 409]
8,++ (NAUC 70-40% of positive control),COc1ccc2cc(-c3nn(CC(=O)N(c4ccc5c(c4)OC(F)(F)O5)C4CC4)c(=O)c4nc[nH]c34)ccc2c1 [Example 412]
9,+ (NAUC<40% of positive control),O=C(Cn1nc(-c2ccc3c(ccn3S(=O)(=O)c3ccccc3)c2)c2[nH]cnc2c1=O)N(c1ccc2c(c1)OC(F)(F)O2)C1CC1 [Example 423]
10,+ (NAUC<40% of positive control),Cn1c2ccccc2c2cc(-c3nn(CC(=O)N(c4ccc5c(c4)OC(F)(F)O5)C4CC4)c(=O)c4nc[nH]c34)ccc21 [Example 425]
11,+ (NAUC<40% of positive control),O=C1Cc2ccc(-c3nn(CC(=O)N(c4ccc5c(c4)OC(F)(F)O5)C4CC4)c(=O)c4nc[nH]c34)cc2N1 [Example 426]
12,+ (NAUC<40% of positive control),CC(C)n1ncc2cc(-c3nn(CC(=O)N(c4ccc5c(c4)OC(F)(F)O5)C4CC4)c(=O)c4nc[nH]c34)ccc21 [Example 430]
13,+ (NAUC<40% of positive control),CN1C(=O)Cc2ccc(-c3nn(CC(=O)N(c4ccc5c(c4)OC(F)(F)O5)C4CC4)c(=O)c4nc[nH]c34)cc21 [Example 432]
14,+ (NAUC<40% of positive control),O=C(Cn1nc(-c2ccc3c(c2)ncn3-c2ccccc2)c2[nH]cnc2c1=O)N(c1ccc2c(c1)OC(F)(F)O2)C1CC1 [Example 433]
15,+++ (NAUC>70% of positive control),N#Cc1cc(-c2nn(CC(=O)N(c3ccc4c(c3)OC(F)(F)O4)C3CC3)c(=O)c3nc[nH]c23)ccc1Cl [Example 445]
16,+++ (NAUC>70% of positive control),CC(C)Oc1ccc(-c2nn(CC(=O)N(c3ccc4c(c3)OC(F)(F)O4)C3CC3)c(=O)c3nc[nH]c23)cc1Cl [Example 446]
17,+ (NAUC<40% of positive control),O=C(Cn1nc(-c2ccc(C(F)(F)F)c(Cl)c2)c2[nH]cnc2c1=O)N(c1ccc2c(c1)OC(F)(F)O2)C1CC1 [Example 448]
18,+ (NAUC<40% of positive control),O=C(Cn1nc(-c2ccc(OCC(F)(F)F)c(F)c2)c2[nH]cnc2c1=O)N(c1ccc2c(c1)OC(F)(F)O2)C1CC1 [Example 457]
19,+++ (NAUC>70% of positive control),COc1ccc(-c2nn(CC(=O)N(c3ccc4c(c3)OC(F)(F)O4)C3CC3)c(=O)c3nc[nH]c23)cc1C#N [Example 464]
20,++ (NAUC 70-40% of positive control),O=C(Cn1nc(-c2ccc(OCC3CC3)c(Cl)c2)c2[nH]cnc2c1=O)N(c1ccc2c(c1)OC(F)(F)O2)C1CC1 [Example 465]
21,+++ (NAUC>70% of positive control),N#Cc1cc(-c2nn(CC(=O)N(c3ccc4c(c3)OC(F)(F)O4)C3CC3)c(=O)c3nc[nH]c23)ccc1N1CCCC1 [Example 470]
22,++ (NAUC 70-40% of positive control),N#Cc1cc(-c2nn(CC(=O)N(c3ccc4c(c3)OC(F)(F)O4)C3CC3)c(=O)c3nc[nH]c23)ccc1OC(F)(F)F [Example 483]
23,+++ (NAUC>70% of positive control),CN(C)c1ccc(-c2nn(CC(=O)N(c3ccc4c(c3)OC(F)(F)O4)C3CC3)c(=O)c3nc[nH]c23)cc1C#N [Example 486]
24,++ (NAUC 70-40% of positive control),N#Cc1cc(-c2nn(CC(=O)N(c3ccc4c(c3)OC(F)(F)O4)C3CC3)c(=O)c3nc[nH]c23)ccc1N1CCC1 [Example 487]
25,+++ (NAUC>70% of positive control),N#Cc1cc(-c2nn(CC(=O)N(c3ccc4c(c3)OC(F)(F)O4)C3CC3)c(=O)c3nc[nH]c23)ccc1N1CCC(F)C1 (centres unmarked) [Example 488]
26,+++ (NAUC>70% of positive control),N#Cc1cc(-c2nn(CC(=O)N(c3ccc4c(c3)OC(F)(F)O4)C3CC3)c(=O)c3nc[nH]c23)ccc1N1CCC(F)(F)C1 [Example 489]
27,+ (NAUC<40% of positive control),O=C(Cn1nc(-c2ccc(N3CCCC3)cc2)c2[nH]cnc2c1=O)N(c1ccc2c(c1)OC(F)(F)O2)C1CC1 [Example 490]

# Continued, compound first:
row,Structure (SMILES),Corr Activity (NAUC)
1,N#Cc1cccc(-c2nn(CC(=O)N(c3ccc4c(c3)OC(F)(F)O4)C3CC3)c(=O)c3nc[nH]c23)c1 [Example 372],+++ (NAUC>70% of positive control)
2,O=C(Cn1nc(-c2cccc(F)c2)c2[nH]cnc2c1=O)N1CCCc2c1ccc1c2OC(F)(F)O1 [Example 373],+++ (NAUC>70% of positive control)
3,O=C(Cn1nc(-c2cccc(Cl)c2)c2[nH]cnc2c1=O)N1CCCc2c1ccc1c2OC(F)(F)O1 [Example 374],+++ (NAUC>70% of positive control)
4,N#Cc1cccc(-c2nn(CC(=O)N3CCCc4c3ccc3c4OC(F)(F)O3)c(=O)c3nc[nH]c23)c1 [Example 375],+++ (NAUC>70% of positive control)
5,CC(C)Oc1cc(-c2nn(CC(=O)N(c3ccc4c(c3)OC(F)(F)O4)C3CC3)c(=O)c3nc[nH]c23)cc(C(F)(F)F)c1 [Example 377],+ (NAUC<40% of positive control)
6,O=C(Cn1nc(-c2cc(F)cc(Cl)c2)c2[nH]cnc2c1=O)N(c1ccc2c(c1)OC(F)(F)O2)C1CC1 [Example 378],++ (NAUC 70-40% of positive control)
7,COc1cc(Cl)cc(-c2nn(CC(=O)N(c3ccc4c(c3)OC(F)(F)O4)C3CC3)c(=O)c3nc[nH]c23)c1 [Example 379],++ (NAUC 70-40% of positive control)
8,O=C(Cn1nc(-c2cc(F)cc(F)c2)c2[nH]cnc2c1=O)N(c1ccc2c(c1)OC(F)(F)O2)C1CC1 [Example 380],++ (NAUC 70-40% of positive control)
9,COc1cc(OC)cc(-c2nn(CC(=O)N(c3ccc4c(c3)OC(F)(F)O4)C3CC3)c(=O)c3nc[nH]c23)c1 [Example 381],+ (NAUC<40% of positive control)
10,O=C(Cn1nc(-c2cc(C(F)(F)F)cc(C(F)(F)F)c2)c2[nH]cnc2c1=O)N(c1ccc2c(c1)OC(F)(F)O2)C1CC1 [Example 382],+ (NAUC<40% of positive control)
11,COc1cc(F)cc(-c2nn(CC(=O)N(c3ccc4c(c3)OC(F)(F)O4)C3CC3)c(=O)c3nc[nH]c23)c1 [Example 383],++ (NAUC 70-40% of positive control)
12,CC(C)COc1cc(F)cc(-c2nn(CC(=O)N(c3ccc4c(c3)OC(F)(F)O4)C3CC3)c(=O)c3nc[nH]c23)c1 [Example 384],++ (NAUC 70-40% of positive control)
13,Cc1cc(F)cc(-c2nn(CC(=O)N(c3ccc4c(c3)OC(F)(F)O4)C3CC3)c(=O)c3nc[nH]c23)c1 [Example 385],++ (NAUC 70-40% of positive control)
14,COc1cc(-c2nn(CC(=O)N(c3ccc4c(c3)OC(F)(F)O4)C3CC3)c(=O)c3nc[nH]c23)cc(C(F)(F)F)c1 [Example 387],+ (NAUC<40% of positive control)
15,COC(=O)c1cc(Cl)cc(-c2nn(CC(=O)N(c3ccc4c(c3)OC(F)(F)O4)C3CC3)c(=O)c3nc[nH]c23)c1 [Example 390],+ (NAUC<40% of positive control)
16,O=C(Cn1nc(-c2cc(F)cc(C(F)(F)F)c2)c2[nH]cnc2c1=O)N(c1ccc2c(c1)OC(F)(F)O2)C1CC1 [Example 391],++ (NAUC 70-40% of positive control)
17,Cc1cc(Cl)cc(-c2nn(CC(=O)N(c3ccc4c(c3)OC(F)(F)O4)C3CC3)c(=O)c3nc[nH]c23)c1 [Example 392],+++ (NAUC>70% of positive control)
18,O=C(Cn1nc(-c2cc(F)cc(OCC(F)(F)F)c2)c2[nH]cnc2c1=O)N(c1ccc2c(c1)OC(F)(F)O2)C1CC1 [Example 393],++ (NAUC 70-40% of positive control)
19,COc1cc(C)cc(-c2nn(CC(=O)N(c3ccc4c(c3)OC(F)(F)O4)C3CC3)c(=O)c3nc[nH]c23)c1 [Example 395],+ (NAUC<40% of positive control)
20,O=C(Cn1nc(-c2cc(Cl)cc(OCc3ccccc3)c2)c2[nH]cnc2c1=O)N(c1ccc2c(c1)OC(F)(F)O2)C1CC1 [Example 396],+++ (NAUC>70% of positive control)
21,COc1cc(OC(F)(F)F)cc(-c2nn(CC(=O)N(c3ccc4c(c3)OC(F)(F)O4)C3CC3)c(=O)c3nc[nH]c23)c1 [Example 397],+ (NAUC<40% of positive control)
22,COCCOc1cc(Cl)cc(-c2nn(CC(=O)N(c3ccc4c(c3)OC(F)(F)O4)C3CC3)c(=O)c3nc[nH]c23)c1 [Example 399],++ (NAUC 70-40% of positive control)
23,O=C(Cn1nc(-c2cc(Cl)cc(N3CCCC3)c2)c2[nH]cnc2c1=O)N(c1ccc2c(c1)OC(F)(F)O2)C1CC1 [Example 400],+++ (NAUC>70% of positive control)
